Measured values from PubChem BioAssay AID1963851 (Molecular Pharmacology Branch, DTP, NCI, 2024).

Tested on: 188146-221-R-J1-PDC complex spheroid viability
Test: Anticancer human tumor 188146-221-R-J1-PDC patient-derived colon adenocarcinoma cell line growth inhibition [POLQ]
Settings: for IC50: curve of first compound; for viability, T/C: stronger effect = lower value
Outline: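 Complex spheroid viability model combining PDC tumour cells with endothelial (HUVEC) and MSC stromal cells. Novobiocin, ART-558 or RP6685 were tested singly and in combination with standard and investigational anticancer drugs. Each was titrated in half-log steps from near clinical Cmax, or from 10 microM where Cmax was unknown.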

[1] = second compound 0.0316 µM, first compound 0.00316 µM
[2] = second compound 0.0316 µM, first compound 0.01 µM
[3] = second compound 0.0316 µM, first compound 0.0316 µM
[4] = second compound 0.0316 µM, first compound 0.1 µM
[5] = second compound 0.1 µM, first compound 0.00316 µM
[6] = second compound 0.1 µM, first compound 0.01 µM
[7] = second compound 0.1 µM, first compound 0.0316 µM
[8] = second compound 0.1 µM, first compound 0.1 µM
[9] = second compound 0.316 µM, first compound 0.00316 µM
[10] = second compound 0.316 µM, first compound 0.01 µM
[11] = second compound 0.316 µM, first compound 0.0316 µM
[12] = second compound 0.316 µM, first compound 0.1 µM
[13] = second compound 1 µM, first compound 0.00316 µM
[14] = second compound 1 µM, first compound 0.01 µM
[15] = second compound 1 µM, first compound 0.0316 µM
[16] = second compound 1 µM, first compound 0.1 µM
[17] = second compound 3.16 µM, first compound 0.00316 µM
[18] = second compound 3.16 µM, first compound 0.01 µM
[19] = second compound 3.16 µM, first compound 0.0316 µM
[20] = second compound 3.16 µM, first compound 0.1 µM
[21] = second compound 10 µM, first compound 0.00316 µM
[22] = second compound 10 µM, first compound 0.01 µM
[23] = second compound 10 µM, first compound 0.0316 µM
[24] = second compound 10 µM, first compound 0.1 µM
[25] = second compound 0.0316 µM, first compound 0.316 µM
[26] = second compound 0.0316 µM, first compound 1 µM
[27] = second compound 0.1 µM, first compound 0.316 µM
[28] = second compound 0.1 µM, first compound 1 µM
[29] = second compound 0.316 µM, first compound 0.316 µM
[30] = second compound 0.316 µM, first compound 1 µM
[31] = second compound 1 µM, first compound 0.316 µM
[32] = second compound 1 µM, first compound 1 µM
[33] = second compound 3.16 µM, first compound 0.316 µM
[34] = second compound 3.16 µM, first compound 1 µM
[35] = second compound 10 µM, first compound 0.316 µM
[36] = second compound 10 µM, first compound 1 µM
[37] = second compound 0.0316 µM, first compound 3.16 µM
[38] = second compound 0.0316 µM, first compound 10 µM
[39] = second compound 0.1 µM, first compound 3.16 µM
[40] = second compound 0.1 µM, first compound 10 µM
[41] = second compound 0.316 µM, first compound 3.16 µM
[42] = second compound 0.316 µM, first compound 10 µM
[43] = second compound 1 µM, first compound 3.16 µM
[44] = second compound 1 µM, first compound 10 µM
[45] = second compound 3.16 µM, first compound 3.16 µM
[46] = second compound 3.16 µM, first compound 10 µM
[47] = second compound 10 µM, first compound 3.16 µM
[48] = second compound 10 µM, first compound 10 µM
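Note: spheroids exposed to compounds for seven days.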
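Throughout, for viability, T/C: 100% = DMSO vehicle control viability.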

CC[C@@]1(O)C(=O)OCc2c1cc1n(c2=O)Cc2cc3c(CN(C)C)c(O)ccc3nc2-1 + Nc1ccc(C#CCN(C(=O)Cc2ncc(C(F)(F)F)cc2C(F)(F)F)c2ccc(F)cc2)nn1 was tested, and the IC50 (second compound 0.0316 µM) was > 100 nM, the IC50 (second compound 0.1 µM) was > 100 nM and the IC50 (second compound 0.316 µM) was > 100 nM. For the same molecule, the IC50 (second compound 1 µM) was > 100 nM, the IC50 (second compound 3.16 µM) was > 100 nM and the IC50 (second compound 10 µM) was > 100 nM. The viability, T/C (second compound 0.0316 µM, first compound 0.000316 µM) was 89.7%, the viability, T/C (second compound 0.0316 µM, first compound 0.001 µM) was 95.7% and the viability, T/C [1] was 84.3%. It also gave a viability, T/C [2] of 101%, a viability, T/C [3] of 96.4% and a viability, T/C [4] of 73.5%. It also gave a viability, T/C (second compound 0.1 µM, first compound 0.000316 µM) of 118%, a viability, T/C (second compound 0.1 µM, first compound 0.001 µM) of 84.1% and a viability, T/C [5] of 95.1%. The viability, T/C [6] was 100%, the viability, T/C [7] was 84.9% and the viability, T/C [8] was 74.9%. For the same molecule, the viability, T/C (second compound 0.316 µM, first compound 0.000316 µM) was 104%, the viability, T/C (second compound 0.316 µM, first compound 0.001 µM) was 88.4% and the viability, T/C [9] was 101%. It also gave a viability, T/C [10] of 97.5%, a viability, T/C [11] of 103% and a viability, T/C [12] of 69.5%. The viability, T/C (second compound 1 µM, first compound 0.000316 µM) was 103%, the viability, T/C (second compound 1 µM, first compound 0.001 µM) was 102% and the viability, T/C [13] was 90.5%. For the same molecule, the viability, T/C [14] was 86.4%, the viability, T/C [15] was 82.3% and the viability, T/C [16] was 68.2%. For the same molecule, the viability, T/C (second compound 3.16 µM, first compound 0.000316 µM) was 106%, the viability, T/C (second compound 3.16 µM, first compound 0.001 µM) was 92.9% and the viability, T/C [17] was 95.1%. The viability, T/C [18] was 89.3%, the viability, T/C [19] was 83% and the viability, T/C [20] was 80.1%. It also gave a viability, T/C (second compound 10 µM, first compound 0.000316 µM) of 100%, a viability, T/C (second compound 10 µM, first compound 0.001 µM) of 96.8% and a viability, T/C [21] of 98.9%. It also gave a viability, T/C [22] of 98.3%, a viability, T/C [23] of 90.5% and a viability, T/C [24] of 66.2%.
CCc1c2c(nc3ccc(O)cc13)-c1cc3c(c(=O)n1C2)COC(=O)[C@]3(O)CC + Nc1ccc(C#CCN(C(=O)Cc2ncc(C(F)(F)F)cc2C(F)(F)F)c2ccc(F)cc2)nn1 showed an IC50 (second compound 0.0316 µM) of 19.8 nM, an IC50 (second compound 0.1 µM) of 25.1 nM and an IC50 (second compound 0.316 µM) of 20.7 nM. The IC50 (second compound 1 µM) was 23.2 nM, the IC50 (second compound 3.16 µM) was 26.5 nM and the IC50 (second compound 10 µM) was 23.2 nM. For the same molecule, the viability, T/C [1] was 94.7%, the viability, T/C [2] was 69.8% and the viability, T/C [3] was 35%. For the same molecule, the viability, T/C [4] was 20.9%, the viability, T/C [25] was 12.5% and the viability, T/C [26] was 7.87%. It also gave a viability, T/C [5] of 101%, a viability, T/C [6] of 81.1% and a viability, T/C [7] of 42.1%. It also gave a viability, T/C [8] of 18.5%, a viability, T/C [27] of 13.3% and a viability, T/C [28] of 10.1%. It also gave a viability, T/C [9] of 100%, a viability, T/C [10] of 73.1% and a viability, T/C [11] of 35.9%. It also gave a viability, T/C [12] of 18.3%, a viability, T/C [29] of 12.4% and a viability, T/C [30] of 8.23%. For the same molecule, the viability, T/C [13] was 88.9%, the viability, T/C [14] was 77.8% and the viability, T/C [15] was 37.7%. For the same molecule, the viability, T/C [16] was 22.3%, the viability, T/C [31] was 13.7% and the viability, T/C [32] was 8.08%. For the same molecule, the viability, T/C [17] was 90.5%, the viability, T/C [18] was 89.7% and the viability, T/C [19] was 42.2%. The viability, T/C [20] was 19.3%, the viability, T/C [33] was 12.6% and the viability, T/C [34] was 8.98%. The viability, T/C [21] was 98.6%, the viability, T/C [22] was 75.3% and the viability, T/C [23] was 38.9%. For the same molecule, the viability, T/C [24] was 22.6%, the viability, T/C [35] was 15.7% and the viability, T/C [36] was 8.14%.
Nc1ccn(C2OC(CO)C(O)C2(F)F)c(=O)n1 (stereo not drawn) + Nc1ccc(C#CCN(C(=O)Cc2ncc(C(F)(F)F)cc2C(F)(F)F)c2ccc(F)cc2)nn1 was tested, and the IC50 (second compound 0.0316 µM) was < 31.6 nM, the IC50 (second compound 0.1 µM) was < 31.6 nM and the IC50 (second compound 0.316 µM) was < 31.6 nM. The IC50 (second compound 1 µM) was < 31.6 nM, the IC50 (second compound 3.16 µM) was < 31.6 nM and the IC50 (second compound 10 µM) was < 31.6 nM. It also gave a viability, T/C [3] of 27.5%, a viability, T/C [4] of 18% and a viability, T/C [25] of 17.3%. It also gave a viability, T/C [26] of 17.3%, a viability, T/C [37] of 17.6% and a viability, T/C [38] of 12.2%. The viability, T/C [7] was 33.5%, the viability, T/C [8] was 18% and the viability, T/C [27] was 18.8%. For the same molecule, the viability, T/C [28] was 15.2%, the viability, T/C [39] was 15.3% and the viability, T/C [40] was 16.1%. It also gave a viability, T/C [11] of 32.9%, a viability, T/C [12] of 17.4% and a viability, T/C [29] of 15.9%. For the same molecule, the viability, T/C [30] was 16.3%, the viability, T/C [41] was 16.4% and the viability, T/C [42] was 15.9%. It also gave a viability, T/C [15] of 30.1%, a viability, T/C [16] of 17.6% and a viability, T/C [31] of 18%. For the same molecule, the viability, T/C [32] was 16.6%, the viability, T/C [43] was 19% and the viability, T/C [44] was 14.2%. It also gave a viability, T/C [19] of 27.4%, a viability, T/C [20] of 19.8% and a viability, T/C [33] of 15.3%. For the same molecule, the viability, T/C [34] was 17.1%, the viability, T/C [45] was 16.6% and the viability, T/C [46] was 15.4%. It also gave a viability, T/C [23] of 40.4%, a viability, T/C [24] of 23.2% and a viability, T/C [35] of 20.3%. It also gave a viability, T/C [36] of 19.1%, a viability, T/C [47] of 19.4% and a viability, T/C [48] of 14.9%.
O=c1[nH]cc(F)c(=O)[nH]1 + Nc1ccc(C#CCN(C(=O)Cc2ncc(C(F)(F)F)cc2C(F)(F)F)c2ccc(F)cc2)nn1 was tested, and the IC50 (second compound 0.0316 µM) was 2920 nM, the IC50 (second compound 0.1 µM) was 2730 nM and the IC50 (second compound 0.316 µM) was 2140 nM. For the same molecule, the IC50 (second compound 1 µM) was 3660 nM, the IC50 (second compound 3.16 µM) was 1620 nM and the IC50 (second compound 10 µM) was 1990 nM. The viability, T/C [3] was 116%, the viability, T/C [4] was 111% and the viability, T/C [25] was 83.8%. It also gave a viability, T/C [26] of 54.1%, a viability, T/C [37] of 46.6% and a viability, T/C [38] of 52.4%. It also gave a viability, T/C [7] of 121%, a viability, T/C [8] of 105% and a viability, T/C [27] of 72.6%. The viability, T/C [28] was 58%, the viability, T/C [39] was 50.3% and the viability, T/C [40] was 45.5%. For the same molecule, the viability, T/C [11] was 113%, the viability, T/C [12] was 103% and the viability, T/C [29] was 79.2%. For the same molecule, the viability, T/C [30] was 55.2%, the viability, T/C [41] was 48.9% and the viability, T/C [42] was 43.2%. It also gave a viability, T/C [15] of 100%, a viability, T/C [16] of 82.4% and a viability, T/C [31] of 74.5%. It also gave a viability, T/C [32] of 58.6%, a viability, T/C [43] of 50.1% and a viability, T/C [44] of 44.9%. It also gave a viability, T/C [19] of 102%, a viability, T/C [20] of 91.7% and a viability, T/C [33] of 74%. For the same molecule, the viability, T/C [34] was 49.9%, the viability, T/C [45] was 46.6% and the viability, T/C [46] was 47.5%. The viability, T/C [23] was 123%, the viability, T/C [24] was 112% and the viability, T/C [35] was 85.7%. It also gave a viability, T/C [36] of 54.6%, a viability, T/C [47] of 47.1% and a viability, T/C [48] of 43.7%.
